Experimental data published in patent publication US4504480A, “Pentacyclic compounds” (Beecham Group p.l.c., priority 1982, dated 1985).

Target: T1, α2-adrenoceptors (Rattus norvegicus, UniProt P22909)
T1 construct: isolated rat-brain synaptic membrane fragments; from tissue; host or cells: rat brain, synaptic membrane fragments
T1 sequence (P22909 1-465): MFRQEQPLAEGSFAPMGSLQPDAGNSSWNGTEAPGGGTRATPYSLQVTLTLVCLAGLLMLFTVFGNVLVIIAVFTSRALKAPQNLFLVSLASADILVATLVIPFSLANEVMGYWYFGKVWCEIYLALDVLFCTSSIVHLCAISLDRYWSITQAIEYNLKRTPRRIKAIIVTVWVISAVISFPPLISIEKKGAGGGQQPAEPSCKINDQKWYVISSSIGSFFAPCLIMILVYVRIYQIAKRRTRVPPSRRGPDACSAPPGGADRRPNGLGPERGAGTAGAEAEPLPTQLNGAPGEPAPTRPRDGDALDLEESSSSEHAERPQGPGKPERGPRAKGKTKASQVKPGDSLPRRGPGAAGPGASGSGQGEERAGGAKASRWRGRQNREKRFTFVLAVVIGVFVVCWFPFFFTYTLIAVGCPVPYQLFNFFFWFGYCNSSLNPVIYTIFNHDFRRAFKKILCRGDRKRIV
Experiment: inhibition of [3H]-clonidine binding to isolated rat-brain synaptic membrane fragments
Settings: from IC50 by Cheng-Prusoff equation
From the text: Blockade of presynaptic α2 -adrenoceptors on noradrenergic neurones effects an increase in intrasynaptic noradrenaline, and thus in the central nervous system could be expected to have an antidepressant effect. [^3 H]-Clonidine binds to α2 -adrenoceptor sites and inhibition of this binding correlates with the blockade of α2 -adrenoceptors. In vitro inhibition by some of the present compounds of the binding of [^3 H]-clonidine to isolated rat-brain synaptic membrane fragments was therefore determined to provide an indication of antidepressant activity. This was carried out using standard biochemical binding study techniques, by the method of Maggi et al, Eur. J. Pham. 1980, 61, 91. IC50 values were obtained from log [dose] against % inhibition curves; Ki values were determined using the Cheng-Prusoff equation.

Compound	Ki
CN1CCN2c3ccccc3Cc3cccc4c3[C@@H]2[C@H]1C4 (relative stereo) [Example I, trans-12-Methyl-1,10,11,12,12a,12b-hexahydro-5H-9b,12-diazabenzo[5,6]cyclohepta[1,2,3,4-def]fluorene]	88 nM
CN1CCN2c3ccccc3Cc3cccc4c3[C@@H]2[C@H]1CC4 (relative stereo) [Example II, trans-13-methyl-1,2,6,11,12,13,13a,13b-octahydro-10b13-diazabenzo[gh]pleiadene]	169 nM
